From ChEMBL document CHEMBL1201861, “Genomics of Drug Sensitity in Cancer screening data, Wellcome Trust Sanger Institute”

Experiments:
Assay in all cases: cells
NCI-H1304 = assay type: functional, cell-based, Homo sapiens; details: Homo sapiens, NCI-H1304;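 further: growth inhibition of the cancer cell line, measured in a cell viability assay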
Description: SANGER: Inhibition of human NCI-H1304 cell growth in a cell viability assay.

MFM-223 = assay type: functional, cell-based, Homo sapiens; details: Homo sapiens, MFM-223
Description: SANGER: Inhibition of human MFM-223 cell growth in a cell viability assay.

KM12 = assay type: functional, cell-based, Homo sapiens; details: Homo sapiens, KM12;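 further: KM12 cell growth inhibition, read out with a cell viability assay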
Description: SANGER: Inhibition of human KM12 cell growth in a cell viability assay.

KGN = assay type: functional, cell-based, Homo sapiens; details: Homo sapiens, KGN;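 further: growth inhibition of KGN cells, read out with a cell viability assay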
Description: SANGER: Inhibition of human KGN cell growth in a cell viability assay.

KU812 cell line = assay type: functional, cell-based, Homo sapiens; details: Homo sapiens, KU812;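 further: growth inhibition of KU812 cells, read out with a cell viability assay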
Description: SANGER: Inhibition of human KU812 cell growth in a cell viability assay.

LB2241-RCC = assay type: functional, cell-based, Homo sapiens; details: Homo sapiens, LB2241-RCC;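 further: cell viability assay measuring how strongly the cultured human renal carcinoma line is prevented from growing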
HCC2157 = assay type: functional, cell-based, Homo sapiens; details: Homo sapiens, HCC2157;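 further: growth inhibition of the cancer cell line, read out as cell viability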
Description: SANGER: Inhibition of human HCC2157 cell growth in a cell viability assay.

697 = assay type: functional, cell-based, Homo sapiens; details: Homo sapiens
EOL1 = assay type: functional, cell-based, Homo sapiens; details: Homo sapiens, EOL1;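 further: growth inhibition of EoL-1 cells, read out by a cell viability assay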
SHP77 = assay type: functional, cell-based, Homo sapiens, SHP-77; details: Homo sapiens, SHP77;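 further: growth inhibition of human SHP-77 cells measured by a cell viability assay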
KLE = assay type: functional, cell-based; details: Homo sapiens;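 further: growth inhibition of human KLE cells, read out with a cell viability assay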
Description: SANGER: Inhibition of human KLE cell growth in a cell viability assay.

LS-513 = assay type: functional, cell-based, Homo sapiens; details: Homo sapiens, LS-513
Description: SANGER: Inhibition of human LS-513 cell growth in a cell viability assay.

KM-H2 = assay type: functional, cell-based, Homo sapiens; details: Homo sapiens, KM-H2;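 further: growth inhibition of KM-H2 cells, read out by a cell viability assay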
Description: SANGER: Inhibition of human KM-H2 cell growth in a cell viability assay.

SCC-15 = assay type: functional, cell-based, Homo sapiens; details: Homo sapiens, SCC-15;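 further: growth inhibition of SCC-15 cells, read out with a cell viability assay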
COLO-684 = assay type: functional, cell-based, Homo sapiens; details: Homo sapiens, COLO-684
J-RT3-T3-5 = assay type: functional, cell-based, Homo sapiens; details: Homo sapiens, J-RT3-T3-5;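 further: cell viability assay measuring growth inhibition of human J-RT3-T3-5 cells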
Description: SANGER: Inhibition of human J-RT3-T3-5 cell growth in a cell viability assay.

NCI-H2171 = assay type: functional, cell-based, Homo sapiens; details: Homo sapiens, NCI-H2171;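 further: growth inhibition of human NCI-H2171 cells, read out by a cell viability assay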
Description: SANGER: Inhibition of human NCI-H2171 cell growth in a cell viability assay.

D-502MG = assay type: functional, cell-based, Homo sapiens; details: Homo sapiens, D-502MG
Description: SANGER: Inhibition of human D-502MG cell growth in a cell viability assay.

TE-5 = assay type: functional, cell-based, Homo sapiens; details: Homo sapiens, TE-5;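 further: inhibition of cell growth, read out by a cell viability assay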
Description: SANGER: Inhibition of human TE-5 cell growth in a cell viability assay.

SW872 = assay type: functional, cell-based, Homo sapiens; details: Homo sapiens, SW872;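 further: growth inhibition of SW872 cells, read out by a viability assay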
Description: SANGER: Inhibition of human SW872 cell growth in a cell viability assay.

DEL = assay type: functional, cell-based, Homo sapiens; details: Homo sapiens, DEL;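 further: growth inhibition of the human DEL cell line, read out with a cell viability assay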
GB-1 = assay type: functional, cell-based, Homo sapiens; details: Homo sapiens, GB-1;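 further: growth of GB-1 cells judged by a viability assay, IC50 marks the concentration inhibiting growth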
Description: SANGER: Inhibition of human GB-1 cell growth in a cell viability assay.

L-428 = assay type: functional, cell-based, Homo sapiens; details: Homo sapiens, L-428
Description: SANGER: Inhibition of human L-428 cell growth in a cell viability assay.

NCI-H1417 = assay type: functional, cell-based, Homo sapiens; details: Homo sapiens, NCI-H1417;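 further: human NCI-H1417 cells, growth inhibition determined with a cell viability readout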
Description: SANGER: Inhibition of human NCI-H1417 cell growth in a cell viability assay.

SF-539 = assay type: functional, cell-based, Homo sapiens; details: Homo sapiens, SF-539;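 further: Read-out is a cell viability assay, with IC50 reflecting inhibition of cell growth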
Description: SANGER: Inhibition of human SF539 cell growth in a cell viability assay.

KARPAS-299 = assay type: functional, cell-based, Homo sapiens; details: Homo sapiens, KARPAS-299
Description: SANGER: Inhibition of human KARPAS-299 cell growth in a cell viability assay.

MZ7-mel = assay type: functional, cell-based, Homo sapiens; details: Homo sapiens, MZ7-mel;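 further: growth inhibition of human MZ7-mel cells, measured by a cell viability assay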
Description: SANGER: Inhibition of human MZ7-mel cell growth in a cell viability assay.

LB831-BLC = assay type: functional, cell-based, Homo sapiens; details: Homo sapiens, LB831-BLC;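 further: growth inhibition of LB831-BLC cells, read out with a cell viability assay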
Description: SANGER: Inhibition of human LB831-BLC cell growth in a cell viability assay.

LB996-RCC = assay type: functional, cell-based, Homo sapiens; details: Homo sapiens, LB996-RCC
Description: SANGER: Inhibition of human LB996-RCC cell growth in a cell viability assay.

NEC8 = assay type: functional, cell-based, Homo sapiens; details: Homo sapiens, NEC8;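 further: growth inhibition of human NEC8 cells, read out by a cell viability assay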
Description: SANGER: Inhibition of human NEC8 cell growth in a cell viability assay.

KNS-42 = assay type: functional, cell-based; details: Homo sapiens;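 further: growth inhibition of KNS-42 cells, read out with a cell viability assay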
Description: SANGER: Inhibition of human KNS-42 cell growth in a cell viability assay.

SK-UT-1 = assay type: functional, cell-based, Homo sapiens; details: Homo sapiens, SK-UT-1;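 further: growth inhibition of SK-UT-1 cells, measured by a cell viability assay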
Description: SANGER: Inhibition of human SK-UT-1 cell growth in a cell viability assay.

CAS-1 = assay type: functional, cell-based, Homo sapiens; details: Homo sapiens, CAS-1;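 further: growth inhibition of CAS-1 cells, measured with a cell viability assay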
Description: SANGER: Inhibition of human CAS-1 cell growth in a cell viability assay.

SK-MEL-1 = assay type: functional, cell-based, Homo sapiens; details: Homo sapiens, SK-MEL-1;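 further: growth inhibition of human SK-MEL-1 cells, read out by a cell viability assay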
Description: SANGER: Inhibition of human SK-MEL-1 cell growth in a cell viability assay.

ATN-1 = assay type: functional, cell-based, Homo sapiens; details: Homo sapiens, ATN-1;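 further: growth inhibition of human ATN-1 cells, read out with a cell viability assay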
Description: SANGER: Inhibition of human ATN-1 cell growth in a cell viability assay.

RPMI-8866 = assay type: functional, cell-based, Homo sapiens; details: Homo sapiens, RPMI-8866
SNU-C2B = assay type: functional, cell-based; details: Homo sapiens;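 further: cell viability readout used to measure compound-driven suppression of SNU-C2B cell proliferation, IC50 marking half-maximal growth inhibition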
Description: SANGER: Inhibition of human SNU-C2B cell growth in a cell viability assay.

COLO-829 = assay type: functional, cell-based, Homo sapiens; details: Homo sapiens, COLO-829
Description: SANGER: Inhibition of human COLO-829 cell growth in a cell viability assay.

SNU1 = assay type: functional, cell-based, Homo sapiens; details: Homo sapiens, SNU1;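 further: growth inhibition of human NCI-SNU-1 cells, measured with a cell viability assay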
Description: SANGER: Inhibition of human NCI-SNU-1 cell growth in a cell viability assay.

SK-N-FI = assay type: functional, cell-based, Homo sapiens; details: Homo sapiens, SK-N-FI;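 further: cell viability assay measuring growth inhibition of human SK-N-FI cells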
Description: SANGER: Inhibition of human SK-N-FI cell growth in a cell viability assay.

CCRF-CEM = assay type: functional, cell-based, Homo sapiens; details: Homo sapiens, CCRF-CEM;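 further: inhibition of CCRF-CEM cell growth, measured by a cell viability assay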
Description: SANGER: Inhibition of human CCRF-CEM cell growth in a cell viability assay.

OVCAR-4 = assay type: functional, cell-based, Homo sapiens; details: Homo sapiens, OVCAR-4;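 further: growth inhibition of human OVCAR-4 cells, measured with a cell viability assay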
Description: SANGER: Inhibition of human OVCAR-4 cell growth in a cell viability assay.

TGBC1TKB = assay type: functional, cell-based, Homo sapiens; details: Homo sapiens, TGBC1TKB;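 further: growth inhibition of TGBC1TKB cells, read out by a cell viability assay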
Description: SANGER: Inhibition of human TGBC1TKB cell growth in a cell viability assay.

HCC2218 = assay type: functional, cell-based, Homo sapiens; details: Homo sapiens, HCC2218;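 further: cell viability assay read-out, with IC50 given as the concentration that inhibits growth of the cell line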
Description: SANGER: Inhibition of human HCC2218 cell growth in a cell viability assay.

EW-16 = assay type: functional, cell-based, Homo sapiens; details: Homo sapiens, EW-16;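 further: growth inhibition of human EW-16 cells, read out as cell viability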
Description: SANGER: Inhibition of human EW-16 cell growth in a cell viability assay.

ES8 = assay type: functional, cell-based, Homo sapiens; details: Homo sapiens, ES8;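 further: growth inhibition of human ES8 cells, read out with a cell viability assay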
Description: SANGER: Inhibition of human ES8 cell growth in a cell viability assay.

KARPAS-45 = assay type: functional, cell-based, Homo sapiens; details: Homo sapiens, KARPAS-45;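 further: inhibition of cell line growth, read out through a viability assay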
Description: SANGER: Inhibition of human KARPAS-45 cell growth in a cell viability assay.

Mo = assay type: functional, cell-based, Homo sapiens; details: Homo sapiens, Mo
Description: SANGER: Inhibition of human Mo-T cell growth in a cell viability assay.

SW982 = assay type: functional, cell-based; details: Homo sapiens;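 further: growth inhibition of SW982 cells, read out with a cell viability assay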
Description: SANGER: Inhibition of human SW982 cell growth in a cell viability assay.

HCE-T = assay type: functional, cell-based, Homo sapiens; details: Homo sapiens, HCE-T;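 further: cell viability assay read-out, reporting inhibition of HCE-T cell growth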
Description: SANGER: Inhibition of human HCE-T cell growth in a cell viability assay.

SMILES: C[C@@H](Oc1cc(-c2cnn(C3CCNCC3)c2)cnc1N)c1c(Cl)ccc(F)c1Cl [CRIZOTINIB]
- IC50 (NCI-H1304): > 2 µM
- IC50 (MFM-223): > 2 µM
- IC50 (KM12): 0.707 µM
- IC50 (KGN): > 2 µM
- IC50 (KU812 cell line): > 2 µM
- IC50 (LB2241-RCC): > 2 µM
- IC50 (HCC2157): > 2 µM
- IC50 697: > 2 µM
- IC50 (EOL1): > 2 µM
- IC50 (SHP77): > 2 µM
- IC50 (KLE): > 2 µM
- IC50 (LS-513): > 2 µM
- IC50 (KM-H2): > 2 µM
- IC50 (SCC-15): > 2 µM
- IC50 (COLO-684): > 2 µM
- IC50 (J-RT3-T3-5): > 2 µM
- IC50 (NCI-H2171): > 2 µM
- IC50 (D-502MG): > 2 µM
- IC50 (TE-5): > 2 µM
- IC50 (SW872): > 2 µM
- IC50 (DEL): 0.37 µM
- IC50 (GB-1): > 2 µM
- IC50 (L-428): > 2 µM
- IC50 (NCI-H1417): > 2 µM
- IC50 (SF-539): 0.204 µM
- IC50 (KARPAS-299): 1.41 µM
- IC50 (MZ7-mel): > 2 µM
- IC50 (LB831-BLC): > 2 µM
- IC50 (LB996-RCC): > 2 µM
- IC50 (NEC8): > 2 µM
- IC50 (KNS-42): > 2 µM
- IC50 (SK-UT-1): > 2 µM
- IC50 (CAS-1): > 2 µM
- IC50 (SK-MEL-1): > 2 µM
- IC50 (ATN-1): > 2 µM
- IC50 (RPMI-8866): > 2 µM
- IC50 (SNU-C2B): > 2 µM
- IC50 (COLO-829): > 2 µM
- IC50 (SNU1): > 2 µM
- IC50 (SK-N-FI): > 2 µM
- IC50 (CCRF-CEM): > 2 µM
- IC50 (OVCAR-4): > 2 µM
- IC50 (TGBC1TKB): > 2 µM
- IC50 (HCC2218): > 2 µM
- IC50 (EW-16): > 2 µM
- IC50 (ES8): > 2 µM
- IC50 (KARPAS-45): > 2 µM
- IC50 (Mo): > 2 µM
- IC50 (SW982): > 2 µM
- IC50 (HCE-T): > 2 µM

SMILES: CCCCCCCCCCCC1=C(O)C(=O)C=C(O)C1=O [EMBELIN]
- IC50 (NCI-H1304): > 32 µM
- IC50 (MFM-223): > 32 µM
- IC50 (KM12): 13.5 µM
- IC50 (KGN): 3.22 µM
- IC50 (KU812 cell line): > 32 µM
- IC50 (LB2241-RCC): > 32 µM
- IC50 (HCC2157): > 32 µM
- IC50 697: > 32 µM
- IC50 (EOL1): 6.73 µM
- IC50 (SHP77): > 32 µM
- IC50 (KLE): 24 µM
- IC50 (LS-513): > 32 µM
- IC50 (KM-H2): 26.5 µM
- IC50 (SCC-15): 7.81 µM
- IC50 (COLO-684): 20.6 µM
- IC50 (J-RT3-T3-5): 6.09 µM
- IC50 (NCI-H2171): > 32 µM
- IC50 (D-502MG): > 32 µM
- IC50 (TE-5): 9.42 µM
- IC50 (SW872): 16.2 µM
- IC50 (DEL): 10.4 µM
- IC50 (GB-1): 5.23 µM
- IC50 (L-428): 5.39 µM
- IC50 (NCI-H1417): > 32 µM
- IC50 (SF-539): 15.4 µM
- IC50 (KARPAS-299): > 32 µM
- IC50 (MZ7-mel): 9.78 µM
- IC50 (LB831-BLC): 12.6 µM
- IC50 (LB996-RCC): 14.1 µM
- IC50 (NEC8): 6.89 µM
- IC50 (KNS-42): > 32 µM
- IC50 (SK-UT-1): 4.69 µM
- IC50 (CAS-1): 15.3 µM
- IC50 (SK-MEL-1): > 32 µM
- IC50 (ATN-1): > 32 µM
- IC50 (RPMI-8866): 8.1 µM
- IC50 (SNU-C2B): > 32 µM
- IC50 (COLO-829): 5.29 µM
- IC50 (SNU1): > 32 µM
- IC50 (SK-N-FI): > 32 µM
- IC50 (CCRF-CEM): 3.02 µM
- IC50 (OVCAR-4): 12.3 µM
- IC50 (TGBC1TKB): 11 µM
- IC50 (HCC2218): 13 µM
- IC50 (EW-16): 4.27 µM
- IC50 (ES8): 14 µM
- IC50 (KARPAS-45): 15.6 µM
- IC50 (Mo): > 32 µM
- IC50 (SW982): 7.34 µM
- IC50 (HCE-T): 13.1 µM
